Experiment: excess molar enthalpy (molar enthalpy of mixing); xn = mol fraction of the nth substance listed
Settings: 101 kPa, Liquid, Flow calorimetry

CC1(C)C(=O)[C@]2(C)CC[C@H]1C2 [(-)-fenchone] + CCO
excess molar enthalpy [kcal/mol]
Settings | 283.15 K | 298.15 K | 313.15 K | 328.15 K
x1 = 0.048 | 0.0418 | 0.0476 | 0.0528 | 0.0586
x1 = 0.097 | 0.0805 | 0.0913 | 0.102 | 0.112
x1 = 0.195 | 0.141 | 0.159 | 0.178 | 0.196
x1 = 0.286 | 0.184 | 0.209 | 0.234 | 0.258
x1 = 0.395 | 0.218 | 0.249 | 0.278 | 0.306
x1 = 0.488 | 0.23 | 0.265 | 0.297 | 0.326
x1 = 0.601 | 0.229 | 0.262 | 0.291 | 0.318
x1 = 0.701 | 0.21 | 0.239 | 0.264 | 0.286
x1 = 0.801 | 0.172 | 0.193 | 0.211 | 0.227
x1 = 0.894 | 0.104 | 0.12 | 0.131 | 0.14
x1 = 0.945 | 0.0569 | 0.065 | 0.071 | 0.076

Source: the NIST ThermoML archive (doi:10.1016/j.jct.2013.09.024)
